In ChEMBL document CHEMBL3745709, “Synthesis of novel ethyl 1-ethyl-6-fluoro-7-(fatty amido)-1,4-dihydro-4-oxoquinoline-3-carboxylate derivatives and their biological evaluation” (Bioorg Med Chem Lett, 2016):
≈ marks a conversion by molar mass, not a printed value.

Tests used:
[1] = Antioxidant activity assessed as DPPH free radical scavenging activity; assay type: physicochemical
Candida albicans [2] = assay: Antifungal activity against Candida albicans MTCC 183 assessed as inhibition zone after 24 hrs at 30 degC by well diffusion method; assay type: functional; conditions: MTCC 183, 24 h
Staphylococcus aureus [3] = assay: Antibacterial activity against Staphylococcus aureus MLS-16 MTCC 2940 assessed as inhibition zone after 24 hrs at 30 degC by well diffusion method; assay type: functional; conditions: MLS-16 MTCC 2940, 24 h
Micrococcus luteus = assay: Antibacterial activity against Micrococcus luteus MTCC 2470 assessed as inhibition zone after 24 hrs at 30 degC by well diffusion method; assay type: functional; conditions: MTCC 2470, 24 h
Escherichia coli [4] = assay: Bactericidal activity against Escherichia coli MTCC 739 assessed as microbial killing after 24 hrs; assay type: functional; conditions: MTCC 739, 24 h
Candida albicans [5] = assay: Antifungal activity against Candida albicans MTCC 4748 assessed as inhibition zone after 24 hrs at 30 degC by well diffusion method; assay type: functional; conditions: MTCC 4748, 24 h
A549 [6] = assay: Cytotoxicity against human A549 cells assessed as reduction in cell viability by MTT assay; assay type: functional, cell-based
Pseudomonas aeruginosa = assay: Antibacterial activity against Pseudomonas aeruginosa MTCC 2453 assessed as inhibition zone after 24 hrs at 30 degC by well diffusion method; assay type: functional; conditions: MTCC 2453, 24 h
Pichia sporocuriosa [7] = assay: Fungicidal activity against Issatchenkia hanoiensis MTCC 4755 assessed as microbial killing after 24 hrs; assay type: functional; conditions: MTCC 4755, 24 h
Staphylococcus aureus [8] = assay: Bactericidal activity against Staphylococcus aureus MLS-16 MTCC 2940 assessed as microbial killing after 24 hrs; assay type: functional; conditions: MLS-16 MTCC 2940, 24 h
Candida albicans [9] = assay: Fungicidal activity against Candida albicans MTCC 3017 assessed as microbial killing after 24 hrs; assay type: functional; conditions: MTCC 3017, 24 h
Candida albicans [10] = assay: Antifungal activity against Candida albicans MTCC 7315 assessed as inhibition zone after 24 hrs at 30 degC by well diffusion method; assay type: functional; conditions: MTCC 7315, 24 h
A549 [11] = assay: Selectivity index, ratio of IC50 for human IMR90 cells to IC50 for human A549 cells; assay type: functional
Candida parapsilosis [12] = assay: Antifungal activity against Candida parapsilosis MTCC 1744 assessed as inhibition zone after 24 hrs at 30 degC by well diffusion method; assay type: functional; conditions: Lodderomyces parapsilosis, MTCC 1744, 24 h
Candida albicans [13] = assay: Fungicidal activity against Candida albicans MTCC 4748 assessed as microbial killing after 24 hrs; assay type: functional; conditions: MTCC 4748, 24 h
Escherichia coli [14] = assay: Antibiofilm activity against Escherichia coli MTCC 739 after 24 hrs by crystal violet staining method; assay type: functional, organism-based; conditions: MTCC 739, 24 h
Staphylococcus aureus [15] = assay: Antibiofilm activity against Staphylococcus aureus MLS-16 MTCC 2940 after 24 hrs by crystal violet staining method; assay type: functional, organism-based; conditions: MLS-16 MTCC 2940, 24 h
Candida albicans [16] = assay: Antifungal activity against Candida albicans MTCC 3958 assessed as inhibition zone after 24 hrs at 30 degC by well diffusion method; assay type: functional; conditions: MTCC 3958, 24 h
[Candida] aaseri [17] = Fungicidal activity against Candida aaseri MTCC 1962 assessed as microbial killing after 24 hrs; assay type: functional; conditions: Yamadazyma aaseri, MTCC 1962, 24 h
Bacillus subtilis [18] = assay: Antibacterial activity against Bacillus subtilis MTCC 121 assessed as inhibition zone after 24 hrs at 30 degC by well diffusion method; assay type: functional; conditions: MTCC 121, 24 h
Nakaseomyces glabratus [19] = assay: Fungicidal activity against Candida glabrata MTCC 3019 assessed as microbial killing after 24 hrs; assay type: functional; conditions: MTCC 3019, 24 h
Candida albicans [20] = assay: Antifungal activity against Candida albicans MTCC 1637 assessed as inhibition zone after 24 hrs at 30 degC by well diffusion method; assay type: functional; conditions: MTCC 1637, 24 h
Bacillus subtilis [21] = assay: Antibiofilm activity against Bacillus subtilis MTCC 121 after 24 hrs by crystal violet staining method; assay type: functional, organism-based; conditions: MTCC 121, 24 h
Candida albicans [22] = assay: Antifungal activity against Candida albicans MTCC 3018 assessed as inhibition zone after 24 hrs at 30 degC by well diffusion method; assay type: functional; conditions: MTCC 3018, 24 h
Candida albicans [23] = assay: Fungicidal activity against Candida albicans MTCC 3018 assessed as microbial killing after 24 hrs; assay type: functional; conditions: MTCC 3018, 24 h
[24] = Cytotoxicity against human DU145 cells assessed as reduction in cell viability by MTT assay; assay type: functional, cell-based; conditions: DU-145
SK-OV-3 = assay: Selectivity index, ratio of IC50 for human IMR90 cells to IC50 for human SKOV3 cells; assay type: functional
Pichia sporocuriosa [25] = assay: Antifungal activity against Issatchenkia hanoiensis MTCC 4755 assessed as inhibition zone after 24 hrs at 30 degC by well diffusion method; assay type: functional; conditions: MTCC 4755, 24 h
Candida albicans [26] = assay: Antifungal activity against Candida albicans MTCC 227 assessed as inhibition zone after 24 hrs at 30 degC by well diffusion method; assay type: functional; conditions: MTCC 227, 24 h
Bacillus subtilis [27] = assay: Bactericidal activity against Bacillus subtilis MTCC 121 assessed as microbial killing after 24 hrs; assay type: functional; conditions: MTCC 121, 24 h
MCF7 = assay: Cytotoxicity against human MCF7 cells assessed as reduction in cell viability by MTT assay; assay type: functional, cell-based
Candida albicans [28] = assay: Fungicidal activity against Candida albicans MTCC 3958 assessed as microbial killing after 24 hrs; assay type: functional; conditions: MTCC 3958, 24 h
Staphylococcus aureus [29] = assay: Antibiofilm activity against Staphylococcus aureus MTCC 96 after 24 hrs by crystal violet staining method; assay type: functional, organism-based; conditions: MTCC 96, 24 h
Candida albicans [30] = assay: Fungicidal activity against Candida albicans MTCC 1637 assessed as microbial killing after 24 hrs; assay type: functional; conditions: MTCC 1637, 24 h
Nakaseomyces glabratus [31] = assay: Antifungal activity against Candida glabrata MTCC 3019 assessed as inhibition zone after 24 hrs at 30 degC by well diffusion method; assay type: functional; conditions: MTCC 3019, 24 h
Pichia kudriavzevii [32] = assay: Fungicidal activity against Candida krusei MTCC 3020 assessed as microbial killing after 24 hrs; assay type: functional; conditions: MTCC 3020, 24 h
[33] = Cytotoxicity against human SKOV3 cells assessed as reduction in cell viability by MTT assay; assay type: functional, cell-based; conditions: SK-OV-3
Candida albicans [34] = assay: Fungicidal activity against Candida albicans MTCC 227 assessed as microbial killing after 24 hrs; assay type: functional; conditions: MTCC 227, 24 h
Pichia kudriavzevii [35] = assay: Antifungal activity against Candida krusei MTCC 3020 assessed as inhibition zone after 24 hrs at 30 degC by well diffusion method; assay type: functional; conditions: MTCC 3020, 24 h
Candida albicans [36] = assay: Fungicidal activity against Candida albicans MTCC 854 assessed as microbial killing after 24 hrs; assay type: functional; conditions: MTCC 854, 24 h
Candida albicans [37] = assay: Antifungal activity against Candida albicans MTCC 854 assessed as inhibition zone after 24 hrs at 30 degC by well diffusion method; assay type: functional; conditions: MTCC 854, 24 h
Staphylococcus aureus [38] = assay: Bactericidal activity against Staphylococcus aureus MTCC 96 assessed as microbial killing after 24 hrs; assay type: functional; conditions: MTCC 96, 24 h
Raoultella planticola = assay: Antibacterial activity against Klebsiella planticola MTCC 530 assessed as inhibition zone after 24 hrs at 30 degC by well diffusion method; assay type: functional; conditions: MTCC 530, 24 h
Candida parapsilosis [39] = assay: Fungicidal activity against Candida parapsilosis MTCC 1744 assessed as microbial killing after 24 hrs; assay type: functional; conditions: Lodderomyces parapsilosis, MTCC 1744, 24 h
Candida albicans [40] = assay: Antifungal activity against Candida albicans MTCC 3017 […] after 24 hrs at 30 degC by well diffusion method; assay type: functional; conditions: MTCC 3017, 24 h
IMR-90 [41] = assay: Selectivity index, ratio of IC50 for human IMR90 cells to IC50 for human MCF7 cells; assay type: functional
Candida albicans [42] = assay: Fungicidal activity against Candida albicans MTCC 7315 assessed as microbial killing after 24 hrs; assay type: functional; conditions: MTCC 7315, 24 h
IMR-90 [43] = assay: Selectivity index, ratio of IC50 for human IMR90 cells to IC50 for human DU145 cells; assay type: functional
[Candida] aaseri [44] = Antifungal activity against Candida aaseri MTCC 1962 assessed as inhibition zone after 24 hrs at 30 degC by well diffusion method; assay type: functional; conditions: Yamadazyma aaseri, MTCC 1962, 24 h
Candida albicans [45] = assay: Fungicidal activity against Candida albicans MTCC 183 assessed as microbial killing after 24 hrs; assay type: functional; conditions: MTCC 183, 24 h
Escherichia coli [46] = assay: Antibacterial activity against Escherichia coli MTCC 739 assessed as inhibition zone after 24 hrs at 30 degC by well diffusion method; assay type: functional; conditions: MTCC 739, 24 h
[47] = Cytotoxicity against human IMR90 cells assessed as reduction in cell viability by MTT assay; assay type: cell-based; conditions: IMR-90
Staphylococcus aureus [48] = assay: Antibacterial activity against Staphylococcus aureus MTCC 96 […] after 24 hrs at 30 degC by well diffusion method; assay type: functional; conditions: MTCC 96, 24 h

CCCCCC(=O)Nc1cc2c(cc1F)c(=O)c(C(=O)OCC)cn2CC
EC50 [1]: 33.8 µg/mL (≈ 89.8 µM)
MIC (Candida albicans [2]): 15.6 µg/mL (≈ 41.4 µM)
MIC (Staphylococcus aureus [3]): 15.6 µg/mL (≈ 41.4 µM)
MIC (Micrococcus luteus): > 125 µg/mL
MBC (Escherichia coli [4]): 31.2 µg/mL (≈ 82.9 µM)
MIC (Candida albicans [5]): 31.2 µg/mL (≈ 82.9 µM)
IC50 (A549 [6]): 8.9 µM
MIC (Pseudomonas aeruginosa): > 125 µg/mL
MFC (Pichia sporocuriosa [7]): 62.5 µg/mL (≈ 166 µM)
MBC (Staphylococcus aureus [8]): 31.2 µg/mL (≈ 82.9 µM)
MFC (Candida albicans [9]): 62.5 µg/mL (≈ 166 µM)
MIC (Candida albicans [10]): 31.2 µg/mL (≈ 82.9 µM)
Ratio IC50 (A549 [11]): 9.9
MIC (Candida parapsilosis [12]): 31.2 µg/mL (≈ 82.9 µM)
MFC (Candida albicans [13]): 62.6 µg/mL (≈ 166 µM)
IC50 (Escherichia coli [14]): 8.7 µg/mL (≈ 23.1 µM)
IC50 (Staphylococcus aureus [15]): 9.8 µg/mL (≈ 26 µM)
MIC (Candida albicans [16]): 31.2 µg/mL (≈ 82.9 µM)
MFC ([Candida] aaseri [17]): 62.5 µg/mL (≈ 166 µM)
MIC (Bacillus subtilis [18]): 7.8 µg/mL (≈ 20.7 µM)
MFC (Nakaseomyces glabratus [19]): 31.2 µg/mL (≈ 82.9 µM)
MIC (Candida albicans [20]): 31.2 µg/mL (≈ 82.9 µM)
IC50 (Bacillus subtilis [21]): 4.6 µg/mL (≈ 12.2 µM)
MIC (Candida albicans [22]): 62.5 µg/mL (≈ 166 µM)
MFC (Candida albicans [23]): 62.5 µg/mL (≈ 166 µM)
IC50 [24]: 9.8 µM
Ratio IC50 (SK-OV-3): 10.2
MIC (Pichia sporocuriosa [25]): 31.2 µg/mL (≈ 82.9 µM)
MIC (Candida albicans [26]): 62.5 µg/mL (≈ 166 µM)
MBC (Bacillus subtilis [27]): 7.8 µg/mL (≈ 20.7 µM)
IC50 (MCF7): 9.8 µM
MFC (Candida albicans [28]): 62.5 µg/mL (≈ 166 µM)
IC50 (Staphylococcus aureus [29]): 2.1 µg/mL (≈ 5.58 µM)
MFC (Candida albicans [30]): 62.5 µg/mL (≈ 166 µM)
MIC (Nakaseomyces glabratus [31]): 31.2 µg/mL (≈ 82.9 µM)
MFC (Pichia kudriavzevii [32]): 62.5 µg/mL (≈ 166 µM)
IC50 [33]: 8.6 µM
MFC (Candida albicans [34]): 125 µg/mL (≈ 332 µM)
MIC (Pichia kudriavzevii [35]): 62.5 µg/mL (≈ 166 µM)
MFC (Candida albicans [36]): 62.5 µg/mL (≈ 166 µM)
MIC (Candida albicans [37]): 31.2 µg/mL (≈ 82.9 µM)
MBC (Staphylococcus aureus [38]): 7.8 µg/mL (≈ 20.7 µM)
MIC (Raoultella planticola): > 125 µg/mL
MFC (Candida parapsilosis [39]): 62.5 µg/mL (≈ 166 µM)
MIC (Candida albicans [40]): 31.2 µg/mL (≈ 82.9 µM)
Ratio IC50 (IMR-90 [41]): 9
MFC (Candida albicans [42]): 31.2 µg/mL (≈ 82.9 µM)
Ratio IC50 (IMR-90 [43]): 9
MIC ([Candida] aaseri [44]): 31.2 µg/mL (≈ 82.9 µM)
MFC (Candida albicans [45]): 31.2 µg/mL (≈ 82.9 µM)
MIC (Escherichia coli [46]): 15.6 µg/mL (≈ 41.4 µM)
IC50 [47]: 88.2 µM
MIC (Staphylococcus aureus [48]): 3.9 µg/mL (≈ 10.4 µM)
